Assay results from patent US20240294543A1, “CYCLOHEPTA-THIENO-DIAZEPINE DERIVATIVES AS GABA A GAMMA1 PAM” (Hoffmann-La Roche Inc., priority 2021, published 2024).

Biological target: h-GABA-A α2β2γ1 (Homo sapiens (Human), UniProt P47869+Q8N1C3)
Assay: Two-electrode voltage clamp electrophysiology in Xenopus oocytes expressing GABAA receptors
Format: cell-based
Conditions: for Efficacy (GABA) %: % modulation of GABA EC20 = 100*(Fold increase−1), compound at about 30-fold its Ki α2β2γ1; for Fold increase h-GABA-A α2β2γ1 oocyte @ 30-fold Ki: Xenopus oocytes, GABA EC20, compound at about 30-fold its Ki α2β2γ1
Protocol: Xenopus Oocytes Preparation Xenopus laevis oocytes at maturation stages V-VI were used for the expression of cloned mRNA encoding GABAA receptor subunits. Oocytes ready for RNA micro-injection were bought from Ecocyte, Castrop-Rauxel, Germany and stored in modified Barth's medium (composition in mM: NaCl 88, KCl 1, NaHCO3 2.4, HEPES 10, MgSO4 0.82, CaNO3 0.33, CaCl2 0.33, pH=7.5) at 20° C. until the experiment.
Oocytes were plated in 96-well plates for microinjection using the Roboinject automated instrument (MultiChannelSystems, Reutlingen, Germany). Approximately 50 nL of an aqueous solution containing the RNA transcripts for the subunits of the desired GABAA receptor subtype was injected into each oocyte. […] Oocytes were kept in modified Barth's medium (composition in mM: NaCl 88, KCl 1, NaHCO3 […], HEPES 10, MgSO4 0.82, CaNO3 0.33, CaCl2 0.33, pH=7.5) at 20° C. until the experiment.
Electrophysiological experiments were performed using the Roboocyte instrument (MultiChannelSystems, Reutlingen, Germany) on days 3 to 5 after the micro-injection of mRNA. During the experiment the oocytes were constantly superfused by a solution containing (in mM) NaCl 90, KCl 1, HEPES 5, MgCl2 1, CaCl2 1 (pH 7.4). Oocytes were impaled by two glass microelectrodes (resistance: 0.5-0.8 MQ) which were filled with a solution containing KCl 1M+K-acetate 1.5 M and voltage-clamped to −80 mV. The recordings were performed at room temperature using the Roboocyte two-electrode voltage clamp system (Multichannelsystem). After an initial equilibration period of 1.5 min GABA was added for 1.5 min at a concentration evoking approximately 20% of a maximal current response (EC20). After another rest interval of 2.5 min GABA was again added evoking a response of similar amplitude and shape. […] Current traces were recorded at a digitization rate of 10 Hz during and shortly before and after the GABA application.
Each compound and concentration was tested on at least 3 oocytes. Different oocytes were used for different compound concentrations.
For the analysis, the digitized current traces of the first and second GABA response were superimposed and, if necessary, rescaled to equal maximal amplitudes. The ratio between the two responses during the time interval of test compound application was calculated point by point. The extremum of the resulting “ratio trace” was taken as the efficacy (“Fold increase”) of the compound expressed as “% modulation of GABA EC20” (100*(Fold increase−1)).

Row | Structure (SMILES) | Efficacy (GABA) % | Fold increase h-GABA-A α2β2γ1 oocyte @ 30-fold Ki
1 | Cc1nnc2n1-c1sc3c(c1C(c1c(F)cccc1F)=N[C@H]2C)CCCC[C@H]3F (single isomer, unassigned) [Example 11] | 88% | 1.88
2 | CCc1nc2n(n1)-c1sc3c(c1C(c1c(F)cccc1F)=N[C@H]2C)COC[C@H](C)O3 [Example 49, (7S,15S)-9-(2,6-difluorophenyl)-4-ethyl-7,15-dimethyl-13,16-dioxa-18-thia-2,3,5,8-tetrazatetracyclo[8.8.0.02,6.011,17]octadeca-1(10),3,5,8,11(17)-pentaene] | 131% | 2.31
3 | C[C@@H]1N=C(c2c(F)cccc2F)c2c(sc3c2COCCC3)-n2nc(C(=O)NC[C@@](C)(O)C(F)(F)F)nc21 [Example 70, (7S)-9-(2,6-difluorophenyl)-7-methyl-N-[(2R)-3,3,3-trifluoro-2-hydroxy-2-methyl-propyl]-13-oxa-18-thia-2,3,5,8-tetrazatetracyclo[8.8.0.02,6.011,17]octadeca-1(10),3,5,8,11(17)-pentaene-4-carboxamide] | 148% | 2.48
4 | C[C@@H]1N=C(c2c(F)cccc2F)c2c(sc3c2COCCC3)-n2cc(C(=O)NCC3(O)CC3)nc21 [Example 68, (7S)-9-(2,6-difluorophenyl)-N-[(1-hydroxycyclopropyl)methyl]-7-methyl-13-oxa-18-thia-2,5,8-triazatetracyclo[8.8.0.02,6.011,17]octadeca-1(10),3,5,8,11(17)-pentaene-4-carboxamide] | 159% | 2.59
5 | C[C@@H]1N=C(c2c(F)cccc2F)c2c(sc3c2COCCC3)-n2cc(C(=O)NCC(C)(C)O)nc21 [Example 67, (7S)-9-(2,6-difluorophenyl)-N-(2-hydroxy-2-methyl-propyl)-7-methyl-13-oxa-18-thia-2,5,8-triazatetracyclo[8.8.0.02,6.011,17]octadeca-1(10),3,5,8,11(17)-pentaene-4-carboxamide] | 164% | 2.64
6 | Cc1nnc2n1-c1sc3c(c1C(c1c(F)cccc1F)=N[C@H]2C)CCCCC3O (mixture of isomers) [Example 9, (7S,16RS)-9-(2,6-difluorophenyl)-3,7-dimethyl-18-thia-2,4,5,8-tetrazatetracyclo[8.8.0.02,6.011,17]octadeca-1(10),3,5,8,11(17)-pentaen-16-ol] | 96% | 1.96
7 | C[C@@H]1N=C(c2c(F)cccc2F)c2c(sc3c2COC[C@H](C)O3)-n2nc(C(=O)N3CC(OC(C)(C)C)C3)nc21 [Example 41, (3-tert-butoxyazetidin-1-yl)-[(7S,15S)-9-(2,6-difluorophenyl)-7,15-dimethyl-13,16-dioxa-18-thia-2,3,5,8-tetrazatetracyclo[8.8.0.02,6.011,17]octadeca-1(10),3,5,8,11(17)-pentaen-4-yl]methanone] | 167% | 2.67
8 | C[C@@H]1N=C(c2c(F)cccc2F)c2c(sc3c2COCCC3)-n2nc(C(=O)NCC3(O)CC3)nc21 [Example 62, (7S)-9-(2,6-difluorophenyl)-N-[(1-hydroxycyclopropyl)methyl]-7-methyl-13-oxa-18-thia-2,3,5,8-tetrazatetracyclo[8.8.0.02,6.011,17]octadeca-1(10),3,5,8,11(17)-pentaene-4-carboxamide] | 179% | 2.79
9 | C[C@@H]1N=C(c2c(F)cccc2F)c2c(sc3c2COCCO3)-n2c(C(F)F)nnc21 [Example 48, (7S)-3-(difluoromethyl)-9-(2,6-difluorophenyl)-7-methyl-13,16-dioxa-18-thia-2,4,5,8-tetrazatetracyclo[8.8.0.02,6.011,17]octadeca-1(10),3,5,8,11(17)-pentaene] | 144% | 2.44
10 | C[C@@H]1N=C(c2c(F)cccc2F)c2c(sc3c2COCCC3)-n2nc(C(=O)N[C@H]3C[C@H](O)C3)nc21 [Example 63, (7S)-9-(2,6-difluorophenyl)-N-(trans-3-hydroxycyclobutyl)-7-methyl-13-oxa-18-thia-2,3,5,8-tetrazatetracyclo[8.8.0.02,6.011,17]octadeca-1(10),3,5,8,11(17)-pentaene-4-carboxamide] | 169% | 2.69
11 | C[C@@H]1N=C(c2c(F)cccc2F)c2c(sc3c2COC[C@H](C)O3)-n2nc(C(=O)NCCO)nc21 [Example 53, (7S,15S)-9-(2,6-difluorophenyl)-N-(2-hydroxyethyl)-7,15-dimethyl-13,16-dioxa-18-thia-2,3,5,8-tetrazatetracyclo[8.8.0.02,6.011,17]octadeca-1(10),3,5,8,11(17)-pentaene-4-carboxamide] | 237% | 3.37
12 | [2H]C1([2H])OCc2c(sc3c2C(c2c(F)cccc2F)=N[C@@H](C)c2nc(C(=O)N4CCC4)nn2-3)OC1([2H])[2H] [Example 23, azetidin-1-yl-[(7S)-14,14,15,15-tetradeuterio-9-(2,6-difluorophenyl)-7-methyl-13,16-dioxa-18-thia-2,3,5,8-tetrazatetracyclo[8.8.0.02,6.011,17]octadeca-1(10),3,5,8,11(17)-pentaen-4-yl]methanone] | 63% | 1.63
13 | Cc1cn2c(nc1=O)[C@H](C)N=C(c1c(F)cccc1F)c1c-2sc2c1CCCCC2 [Example 26, (8S)-10-(2,6-difluorophenyl)-4,8-dimethyl-19-thia-2,6,9-triazatetracyclo[9.8.0.02,7.012,18]nonadeca-1(11),3,6,9,12(18)-pentaen-5-one] | 109% | 2.09
14 | C[C@@H]1N=C(c2c(F)cccc2F)c2c(sc3c2CCCCC3)-n2c(-c3cccnn3)nnc21 [Example 4, (7S)-9-(2,6-difluorophenyl)-7-methyl-3-pyridazin-3-yl-18-thia-2,4,5,8-tetrazatetracyclo[8.8.0.02,6.011,17]octadeca-1(10),3,5,8,11(17)-pentaene] | 119% | 2.19
15 | C[C@@H]1N=C(c2c(F)cccc2F)c2c(sc3c2COCCC3)-n2nc(C(=O)N[C@H]3C[C@@H](O)C3)nc21 [Example 64, (7S)-9-(2,6-difluorophenyl)-N-(cis-3-hydroxycyclobutyl)-7-methyl-13-oxa-18-thia-2,3,5,8-tetrazatetracyclo[8.8.0.02,6.011,17]octadeca-1(10),3,5,8,11(17)-pentaene-4-carboxamide] | 164% | 2.64
16 | C[C@@H]1N=C(c2c(F)cccc2F)c2c(sc3c2COCCO3)-n2nc(C(=O)N3CCC3)nc21 [Example 22, azetidin-1-yl-[(7S)-9-(2,6-difluorophenyl)-7-methyl-13,16-dioxa-18-thia-2,3,5,8-tetrazatetracyclo[8.8.0.02,6.011,17]octadeca-1(10),3,5,8,11(17)-pentaen-4-yl]methanone] | 88% | 1.88
